Measured values: ChEMBL document CHEMBL3603807, “Discovery of 2-arylamino-4-(1-methyl-3-isopropylsulfonyl-4-pyrazol-amino)pyrimidines as potent anaplastic lymphoma kinase (ALK) inhibitors” (Bioorg Med Chem Lett, 2015)

Legend:
[1] = Antiproliferative activity against human KARPAS299 cells assessed as inhibition of cell proliferation incubated for 96 hrs by cell-titer-Glo assay; assay type: functional, cell-based; settings: KARPAS-299, 96 h
[2] = tested on: NCI-H2228; experiment: Antiproliferative activity against human NCI-H2228 cells assessed as inhibition of cell proliferation incubated for 96 hrs by cell-titer-Glo assay; assay type: functional, cell-based; settings: NCI-H2228, 96 h
[3] = target: ALK tyrosine kinase receptor (Homo sapiens, UniProt Q9UM73, L1196M); experiment: Inhibition of ALK L1196M mutant (unknown origin) using TK substrate-biotin incubated for 30 mins by HTRF assay
Sequence of ALK tyrosine kinase receptor (Homo sapiens, UniProt Q9UM73, L1196M) (Q9UM73 19-1620 L1196M limits assumed): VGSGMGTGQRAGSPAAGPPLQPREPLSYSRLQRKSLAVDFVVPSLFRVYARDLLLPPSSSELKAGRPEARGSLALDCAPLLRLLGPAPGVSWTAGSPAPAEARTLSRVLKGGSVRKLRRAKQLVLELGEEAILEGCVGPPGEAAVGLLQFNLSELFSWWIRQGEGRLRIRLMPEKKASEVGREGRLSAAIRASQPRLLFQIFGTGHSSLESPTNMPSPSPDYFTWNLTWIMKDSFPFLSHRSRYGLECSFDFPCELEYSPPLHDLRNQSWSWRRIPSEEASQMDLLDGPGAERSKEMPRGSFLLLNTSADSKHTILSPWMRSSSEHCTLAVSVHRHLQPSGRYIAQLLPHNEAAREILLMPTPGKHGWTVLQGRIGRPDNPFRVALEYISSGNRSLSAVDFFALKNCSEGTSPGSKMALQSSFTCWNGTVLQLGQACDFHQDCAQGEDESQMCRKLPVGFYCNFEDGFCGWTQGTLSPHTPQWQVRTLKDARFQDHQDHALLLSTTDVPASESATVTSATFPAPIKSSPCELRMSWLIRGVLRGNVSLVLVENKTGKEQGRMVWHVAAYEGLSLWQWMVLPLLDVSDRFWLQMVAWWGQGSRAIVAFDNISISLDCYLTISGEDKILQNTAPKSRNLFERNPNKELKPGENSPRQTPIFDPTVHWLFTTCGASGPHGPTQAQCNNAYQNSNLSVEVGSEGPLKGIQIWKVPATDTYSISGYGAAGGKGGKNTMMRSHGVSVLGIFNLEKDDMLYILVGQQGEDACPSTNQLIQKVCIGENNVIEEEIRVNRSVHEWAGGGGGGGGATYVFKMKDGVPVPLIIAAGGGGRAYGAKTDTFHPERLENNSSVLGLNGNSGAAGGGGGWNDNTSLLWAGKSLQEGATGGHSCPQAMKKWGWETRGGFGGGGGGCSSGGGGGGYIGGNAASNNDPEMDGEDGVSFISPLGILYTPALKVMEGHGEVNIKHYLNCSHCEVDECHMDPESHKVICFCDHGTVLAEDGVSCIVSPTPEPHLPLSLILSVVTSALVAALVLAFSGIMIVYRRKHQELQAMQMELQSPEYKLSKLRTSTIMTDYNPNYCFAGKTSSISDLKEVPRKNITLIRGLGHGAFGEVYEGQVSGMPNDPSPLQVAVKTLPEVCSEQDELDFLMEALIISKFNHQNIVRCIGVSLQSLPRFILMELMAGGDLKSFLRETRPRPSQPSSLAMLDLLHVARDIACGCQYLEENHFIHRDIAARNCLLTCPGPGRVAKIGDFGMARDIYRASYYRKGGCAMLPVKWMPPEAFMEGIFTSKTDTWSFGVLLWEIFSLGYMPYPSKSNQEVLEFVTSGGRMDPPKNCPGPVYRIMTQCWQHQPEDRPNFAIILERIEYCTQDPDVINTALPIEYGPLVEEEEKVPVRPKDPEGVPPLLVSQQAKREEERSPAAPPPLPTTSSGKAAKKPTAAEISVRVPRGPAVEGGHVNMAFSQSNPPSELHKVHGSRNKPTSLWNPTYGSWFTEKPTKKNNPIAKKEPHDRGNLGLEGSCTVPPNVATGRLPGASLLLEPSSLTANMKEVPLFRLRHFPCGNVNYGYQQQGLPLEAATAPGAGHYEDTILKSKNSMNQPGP

[4] = target: ALK tyrosine kinase receptor (Homo sapiens, UniProt Q9UM73); experiment: Inhibition of wild type human recombinant ALK using TK substrate-biotin incubated for 30 mins by HTRF assay
Sequence of ALK tyrosine kinase receptor (Homo sapiens, UniProt Q9UM73) (Q9UM73 whole entry): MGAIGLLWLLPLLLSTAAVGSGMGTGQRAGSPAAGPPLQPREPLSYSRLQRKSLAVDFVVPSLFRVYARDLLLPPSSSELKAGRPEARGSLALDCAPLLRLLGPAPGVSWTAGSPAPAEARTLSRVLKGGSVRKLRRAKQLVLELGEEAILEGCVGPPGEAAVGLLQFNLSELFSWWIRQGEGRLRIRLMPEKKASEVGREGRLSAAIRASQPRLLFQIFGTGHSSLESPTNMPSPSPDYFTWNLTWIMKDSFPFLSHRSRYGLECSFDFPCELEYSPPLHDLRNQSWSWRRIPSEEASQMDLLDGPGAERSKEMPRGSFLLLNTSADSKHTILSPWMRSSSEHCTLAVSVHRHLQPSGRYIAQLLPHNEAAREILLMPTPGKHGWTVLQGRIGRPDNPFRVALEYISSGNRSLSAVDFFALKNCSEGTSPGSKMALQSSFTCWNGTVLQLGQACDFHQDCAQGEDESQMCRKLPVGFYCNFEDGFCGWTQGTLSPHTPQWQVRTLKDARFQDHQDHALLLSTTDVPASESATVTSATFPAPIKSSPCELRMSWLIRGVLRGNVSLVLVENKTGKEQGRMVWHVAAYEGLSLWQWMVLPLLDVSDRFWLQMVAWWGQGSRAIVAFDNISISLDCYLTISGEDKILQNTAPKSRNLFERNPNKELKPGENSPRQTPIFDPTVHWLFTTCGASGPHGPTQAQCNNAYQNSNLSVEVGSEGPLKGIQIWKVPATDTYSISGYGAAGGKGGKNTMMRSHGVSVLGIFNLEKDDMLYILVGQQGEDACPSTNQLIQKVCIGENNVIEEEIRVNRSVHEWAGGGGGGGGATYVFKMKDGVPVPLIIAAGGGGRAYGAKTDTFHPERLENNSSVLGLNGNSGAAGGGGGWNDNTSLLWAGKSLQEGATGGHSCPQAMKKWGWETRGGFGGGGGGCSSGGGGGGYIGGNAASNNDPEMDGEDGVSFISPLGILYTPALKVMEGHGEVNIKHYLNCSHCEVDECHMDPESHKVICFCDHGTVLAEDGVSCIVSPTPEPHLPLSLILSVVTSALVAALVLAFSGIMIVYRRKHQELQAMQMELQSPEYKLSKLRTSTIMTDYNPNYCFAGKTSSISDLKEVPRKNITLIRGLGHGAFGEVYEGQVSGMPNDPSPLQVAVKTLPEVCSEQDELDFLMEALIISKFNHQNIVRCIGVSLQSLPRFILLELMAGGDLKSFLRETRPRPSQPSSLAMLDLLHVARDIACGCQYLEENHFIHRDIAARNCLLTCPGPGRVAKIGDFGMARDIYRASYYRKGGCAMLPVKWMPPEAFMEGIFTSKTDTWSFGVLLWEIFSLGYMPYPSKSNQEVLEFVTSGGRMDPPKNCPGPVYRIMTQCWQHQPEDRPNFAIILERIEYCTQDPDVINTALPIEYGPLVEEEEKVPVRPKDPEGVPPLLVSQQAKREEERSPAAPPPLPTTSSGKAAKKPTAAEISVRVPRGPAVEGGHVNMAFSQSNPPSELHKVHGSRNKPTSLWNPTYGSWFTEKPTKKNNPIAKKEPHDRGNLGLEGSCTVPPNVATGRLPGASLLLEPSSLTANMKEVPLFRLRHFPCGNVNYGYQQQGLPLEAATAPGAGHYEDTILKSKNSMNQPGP

[5] = Half life in beagle dog at 1 mg/kg, iv by LC-MS/MS method; assay type: ADME, organism-based, Canis lupus familiaris; settings: in vivo
[6] = Oral bioavailability in Sprague-Dawley rat at 5 mg/kg by LC-MS/MS method; assay type: ADME, organism-based; settings: in vivo
[7] = Tmax in Sprague-Dawley rat at 5 mg/kg, po by LC-MS/MS method; assay type: ADME, organism-based; settings: in vivo
[8] = AUC (0 to infinity) in Sprague-Dawley rat at 5 mg/kg, po by LC-MS/MS method; assay type: ADME, organism-based; set-up: dose 5 mg/kg, time infinity, route oral; settings: in vivo
[9] = Volume of distribution in Sprague-Dawley rat at 1 mg/kg, iv by LC-MS/MS method; assay type: ADME, organism-based; settings: in vivo
[10] = AUC (0 to infinity) in beagle dog at 3 mg/kg, po by LC-MS/MS method; assay type: ADME, organism-based, Canis lupus familiaris; set-up: dose 3 mg/kg, route oral, time infinity; settings: in vivo
[11] = Volume of distribution in beagle dog at 1 mg/kg, iv by LC-MS/MS method; assay type: ADME, organism-based, Canis lupus familiaris; settings: in vivo
[12] = Cmax in Sprague-Dawley rat at 5 mg/kg, po by LC-MS/MS method; assay type: ADME, organism-based; set-up: dose 5 mg/kg, route oral; settings: in vivo
[13] = AUC (0 to infinity) in beagle dog at 1 mg/kg, iv by LC-MS/MS method; assay type: ADME, organism-based, Canis lupus familiaris; set-up: dose 1 mg/kg, route intravenous, time infinity; settings: in vivo
[14] = Oral bioavailability in beagle dog at 3 mg/kg by LC-MS/MS method; assay type: ADME, organism-based, Canis lupus familiaris; settings: in vivo
[15] = Cmax in beagle dog at 3 mg/kg, po by LC-MS/MS method; assay type: ADME, organism-based, Canis lupus familiaris; set-up: dose 3 mg/kg, route oral; settings: in vivo
[16] = Half life in Sprague-Dawley rat at 1 mg/kg, iv by LC-MS/MS method; assay type: ADME, organism-based; settings: in vivo
[17] = Clearance in beagle dog at 1 mg/kg, iv by LC-MS/MS method; assay type: ADME, organism-based, Canis lupus familiaris; settings: in vivo
[18] = tested on: Mus musculus; experiment: Toxicity in human NCI-H2228 cells xenografted Balb/c mouse EML4-ALK NSCLC model assessed as induction of body weight loss at 30 mg/kg, po qd for 2 weeks; assay type: organism-based; settings: in vivo, 336 h
[19] = Tmax in beagle dog at 3 mg/kg, po by LC-MS/MS method; assay type: ADME, organism-based, Canis lupus familiaris; settings: in vivo
[20] = Clearance in Sprague-Dawley rat at 1 mg/kg, iv by LC-MS/MS method; assay type: ADME, organism-based; settings: in vivo
[21] = AUC (0 to infinity) in Sprague-Dawley rat at 1 mg/kg, iv by LC-MS/MS method; assay type: ADME, organism-based; set-up: dose 1 mg/kg, route intravenous, time infinity; settings: in vivo
[22] = Clearance in rat; assay type: ADME, organism-based; settings: in vivo

Structure (SMILES)	IC50 [1] [nM]	IC50 [2] [nM]	other results
Cc1cc(Nc2ncc(Cl)c(Nc3cn(C)nc3S(=O)(=O)C(C)C)n2)c(OC2CC2)cc1C1CCNCC1	9	122	
Cc1cc(Nc2ncc(Cl)c(Nc3cn(C)nc3S(=O)(=O)C(C)C)n2)c(OC(C)C)cc1C1CCNCC1	17	225	IC50 [3]: 20 nM; IC50 [4]: 8 nM
Cc1cc(Nc2ncc(Cl)c(Nc3cn(C)nc3S(=O)(=O)C(C)C)n2)c(OC2CC2)cc1C1CCCN(C)C1 (stereo not drawn)	3	32	IC50 [3]: 7 nM; IC50 [4]: 3 nM
Cc1cc(Nc2ncc(Cl)c(Nc3cn(C)nc3S(=O)(=O)C(C)C)n2)c(OC(F)(F)F)cc1C1CCN(C)CC1	20	374	
CS(=O)(=O)O.Cc1cc(Nc2ncc(Cl)c(Nc3cn(C)nc3S(=O)(=O)C(C)C)n2)c(OC(C)C)cc1C1CCN(C)CC1			half-life [5]: 4.9 h; bioavailability [6]: 63.2%; Tmax [7]: 6.7 h; AUC(0-inf) [8]: 3120 ng·h/mL; Vd [9]: 7.5 L/kg; AUC(0-inf) [10]: 952 ng·h/mL; Vd [11]: 11 L/kg; Cmax [12]: 199 ng/mL; AUC(0-inf) [13]: 637 ng·h/mL; bioavailability [14]: 49.2%; Cmax [15]: 85.8 ng/mL; half-life [16]: 5.1 h; clearance [17]: 26.2 mL/min/kg; Activity [18]: Non-toxic; Tmax [19]: 2 h; clearance [20]: 16.9 mL/min/kg; AUC(0-inf) [21]: 988 ng·h/mL
Cc1cc(Nc2ncc(Cl)c(Nc3cn(C)nc3S(=O)(=O)C(C)C)n2)c(OC(C)C)cc1C1CCN(C)C1 (stereo not drawn)	11	131	
CC(C)S(=O)(=O)c1nn(C)cc1Nc1nc(Nc2cc(Cl)c(C3CCN(C)CC3)cc2OC2CC2)ncc1Cl	15	103	
Cc1cc(Nc2ncc(Cl)c(Nc3cn(C)nc3S(=O)(=O)C(C)C)n2)c(OC2CC2)cc1C1CCN(C)CC1			clearance [22]: 22.7 mL/min/kg
CC(C)S(=O)(=O)c1nn(C)cc1Nc1nc(Nc2ccc(C3CCN(C)CC3)cc2OC2CC2)ncc1Cl	7	36	clearance [22]: 79.8 mL/min/kg
Cc1cc(Nc2ncc(Cl)c(Nc3cn(C)nc3S(=O)(=O)C(C)C)n2)c(OC(C)C)cc1C1CN(C)C1	17	270	IC50 [3]: 5 nM; IC50 [4]: 2 nM
Cc1cc(Nc2ncc(Cl)c(Nc3cn(C)nc3S(=O)(=O)C(C)C)n2)c(C(F)(F)F)cc1C1CCN(C)CC1	74	1080	
CC(C)S(=O)(=O)c1nn(C)cc1Nc1nc(Nc2cc(C#N)c(C3CCN(C)CC3)cc2OC2CC2)ncc1Cl	100	165	
Cc1cc(Nc2ncc(Cl)c(Nc3cn(C)nc3S(=O)(=O)C(C)C)n2)c(OCC2CC2)cc1C1CCNCC1	43	262	
CCNC(=O)N1CCC(c2cc(OC3CC3)c(Nc3ncc(Cl)c(Nc4cn(C)nc4S(=O)(=O)C(C)C)n3)cc2C)CC1	20	82	IC50 [3]: 6 nM; IC50 [4]: 4 nM
Cc1cc(Nc2ncc(Cl)c(Nc3cn(C)nc3S(=O)(=O)C(C)C)n2)c(OCC2CC2)cc1C1CCN(C)CC1	74	226	
Cc1cc(Nc2ncc(Cl)c(Nc3cn(C)nc3S(=O)(=O)C(C)C)n2)c(C(C)C)cc1C1CCN(C)CC1		660	
Cc1cc(Nc2ncc(Cl)c(Nc3cn(C)nc3S(=O)(=O)C(C)C)n2)c(OC2CC2)cc1C1CCN(C(=O)C(C)C)CC1		149	IC50 [3]: 29 nM; IC50 [4]: 26 nM
Cc1cc(Nc2ncc(Cl)c(Nc3cn(C)nc3S(=O)(=O)C(C)C)n2)c(OC(CF)CF)cc1C1CCN(C)CC1	62	403	
Cc1cc(Nc2ncc(Cl)c(Nc3cn(C)nc3S(=O)(=O)C(C)C)n2)c(OC(C)C)cc1C1CCNC1 (stereo not drawn)	28	364	
Cc1cc(Nc2ncc(Cl)c(Nc3cn(C)nc3S(=O)(=O)C(C)C)n2)c(OC(C)C)cc1C1CNC1	60	288	
